# Laboratory results: patent publication US20060135432A1, “Agonists and antagonists of conadotropin-releasing hormone-2, and use thereof” (priority 2002, published 2006)
# Where a SMILES comes first, the peptide text is derived from it. [ ]: non-standard residue; d: D form. dPhe(4-Cl) = N[C@H](Cc1ccc(Cl)cc1)C(=O)O; d2Nal = N[C@H](Cc1ccc2ccccc2c1)C(=O)O; dCit = NC(=O)NCCC[C@@H](N)C(=O)O; d3Pal = N[C@H](Cc1cccnc1)C(=O)O; pGlu = O=C1CC[C@@H](C(=O)O)N1
# Legend:
# [1] = tested on: Primate GnRH-2 receptor; test: c-fos-luc luciferase activation in CV-1 cells expressing Primate GnRH-2 receptor; format: cell-based
# Method: (§1) Complimentary DNA (cDNA) for a Primate GnRH-2 receptor was obtained from a CV-1 cell genome. […] Plasmids having Primate GnRH-2 receptors where transfected into CV-1 cells. To assay the activity of the receptor, c-fos-luc where a luciferase gene is fused with a c-fos promoter was co-transfected as a probe gene. After 48 hours from transfection, the cells were treated with GnRH-2 agonists and then the activity of luciferase was assayed (Seong et al., Endocrinology vol 144 2003, 454-466).
# Of the GnRH-2 receptors, [D-Ala^6]GnRH-2 performed excellently, showing effects about 3 times that of a wild-type ligand, GnRH-2. […] When analogs where the 5th, 7th, and 8th amino acids of [D-Ala^6]GnRH-2 are substituted were used, it was observed that their effects were weaker than [D-Ala^6]GnRH-2, and therefore it can be seen that it is important to maintain His, Trp, and Tyr that are found at the 5th, 7th, and 8th positions of GnRH-2 as they are (FIG. 3b).
# [2] = tested on: Primate GnRH-2 receptor; test: Inhibition of GnRH-2-induced c-fos-luc luciferase activity in cells expressing Primate GnRH-2 receptor; format: cell-based; conditions: treated at the same time as GnRH-2
# Method: as §1
# In the same manner as in 2-3 above, Primate GnRH-2 receptors were co-transfected along with c-fos-luc reporter genes, and after 48 hours, GnRH-2 and GnRH-2 antagonists were treated thereinto at the same time and then the effect of GnRH-2 antagonists was observed.
Molecule,effect on luciferase activity induced by GnRH-2 [2],other results
p-Glu-His-Trp-Ser-His-D-Lys-Trp-Tyr-Pro-Gly-NH2 ([pGlu]HWSH[dK]WYPG-NH2; SMILES NCCCC[C@@H](NC(=O)[C@H](Cc1c[nH]cn1)NC(=O)[C@H](CO)NC(=O)[C@H](Cc1c[nH]c2ccccc12)NC(=O)[C@H](Cc1c[nH]cn1)NC(=O)[C@@H]1CCC(=O)N1)C(=O)N[C@@H](Cc1c[nH]c2ccccc12)C(=O)N[C@@H](Cc1ccc(O)cc1)C(=O)N1CCC[C@H]1C(=O)NCC(N)=O) [[D-Lys^6]GnRH-2],,"effect reduced, fold, as compared with GnRH-2 [1]: about 1.5 fold"
[D-Ala^6]GnRH-1: the agonist of GnRH-1 [reference compound],,sensitivity as compared with GnRH-2 [1]: very low sensitivity
"CC(=O)N[C@H](Cc1ccc2ccccc2c1)C(=O)N[C@H](Cc1ccc(Cl)cc1)C(=O)N[C@H](Cc1cccnc1)C(=O)N[C@@H](CO)C(=O)N[C@@H](Cc1c[nH]cn1)C(=O)N[C@H](CCCNC(N)=O)C(=O)N[C@@H](Cc1c[nH]c2ccccc12)C(=O)N[C@@H](Cc1ccc(O)cc1)C(=O)N1CCC[C@H]1C(=O)N[C@H](C)C(N)=O [Trptorelix-2, Ac-D2Nal-(4Cl)D-Phe-D-3Pal-Ser-His-DCit-Trp-Tyr-Pro-DAla-NH2] (Ac-[d2Nal][dPhe(4-Cl)][d3Pal]SH[dCit]WYP[dA]-NH2)",reduced in a concentration-dependent manner,
Ac-D2Nal-(4Cl)D-Phe-D-3Pal-Ser-Tyr-DCit-Trp-Leu-Pro-DAla-NH2 (Ac-[d2Nal][dPhe(4-Cl)][d3Pal]SY[dCit]WLP[dA]-NH2; SMILES CC(=O)N[C@H](Cc1ccc2ccccc2c1)C(=O)N[C@H](Cc1ccc(Cl)cc1)C(=O)N[C@H](Cc1cccnc1)C(=O)N[C@@H](CO)C(=O)N[C@@H](Cc1ccc(O)cc1)C(=O)N[C@H](CCCNC(N)=O)C(=O)N[C@@H](Cc1c[nH]c2ccccc12)C(=O)N[C@@H](CC(C)C)C(=O)N1CCC[C@H]1C(=O)N[C@H](C)C(N)=O) [Trptorelix-3],no effect,
